In the NIST ThermoML archive (doi:10.1021/acs.jced.9b00399):

Tests used:
[1] = Gas, isochoric method
[2] = xn = mol fraction of the nth substance listed; conditions: Gas, isochoric method, x1 = 0.6992

N#N [nitrogen]
[1]
Conditions	mass density [kg/m3]
727.3 K, 20352 kPa	86.58
805.8 K, 22603 kPa	86.28
874.6 K, 24580 kPa	86.14
927.1 K, 26090 kPa	86.03

[HH] [hydrogen] + O=C=O
[2]
Conditions	mass density [kg/m3]
673.4 K, 20652 kPa	50.77
683.6 K, 20986 kPa	50.78
693.5 K, 21304 kPa	50.79
703.3 K, 21638 kPa	50.85
713.9 K, 21981 kPa	50.87
723.3 K, 22282 kPa	50.87
733.9 K, 22610 kPa	50.86
743.9 K, 22909 kPa	50.82
753.6 K, 23216 kPa	50.82

O [water]
[1]
Conditions	mass density [kg/m3]
724.1 K, 15981 kPa	58.3
773.1 K, 17804 kPa	58.58
826.1 K, 19727 kPa	58.95
877.1 K, 21161 kPa	58.02
927.1 K, 22542 kPa	57.4

[HH] [hydrogen]
[1]
Conditions	mass density [kg/m3]
722.4 K, 20262 kPa	6.45
733.6 K, 20559 kPa	6.449
743.1 K, 20811 kPa	6.447
753.6 K, 21086 kPa	6.447
763.9 K, 21370 kPa	6.445
773.4 K, 21625 kPa	6.445
784.3 K, 21917 kPa	6.444
792.8 K, 22153 kPa	6.443
803.8 K, 22451 kPa	6.442
812.9 K, 22702 kPa	6.442
822.2 K, 22963 kPa	6.441
834.3 K, 23222 kPa	6.422
844.3 K, 23469 kPa	6.412
854.7 K, 23640 kPa	6.381
863.3 K, 23818 kPa	6.366
874.1 K, 24069 kPa	6.354
883.3 K, 24272 kPa	6.344
892.3 K, 24413 kPa	6.337
904.5 K, 24668 kPa	6.324
914.1 K, 24899 kPa	6.319
924 K, 25112 kPa	6.313
